From patent US20240101572A1, “DIHYDROOXADIAZINONE COMPOUND AND PHARMACEUTICAL USE THEREOF” (Japan Tobacco Inc., priority 2022, published 2024) come the findings set out here.

SMILES strings stand for the structures. Read-outs that look alike come from different tables or passages of the source.

In test [1] the target is full-length human PLD1 (Homo sapiens (Human), UniProt Q13393). Put plainly: Evaluation of human PLD1 enzyme inhibitory activity (Amplex Red / choline oxidase fluorescence). The note with it: for IC50: full-length human PLD1 enzyme, read-out: PLD1 IC50. Type of test: biochemical. Put shortly: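 Fluorescence read-out couples choline to Amplex Red via choline oxidase and peroxidase after a 60 min room-temperature reaction. Enzyme: FLAG-tagged full-length human PLD1 from Expi293F cells, anti-FLAG purified; substrate diheptanoyl phosphatidylcholine; HEPES pH 7.5 assay buffer with 0.01% NP-40, 0.1% BSA, 5% DMSO final.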

In test [2] the target is full-length human PLD2 (Homo sapiens (Human), UniProt O14939). Put plainly: Evaluation of human PLD2 enzyme inhibitory activity (Amplex Red / choline oxidase fluorescence). The test is classed as biochemical. The note with it: for IC50: full-length human PLD2 enzyme, read-out: PLD2 IC50. Put shortly: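 Released choline was read by Amplex Red fluorescence coupled to choline oxidase and HRP after a 60 min room-temperature reaction. Substrate was diheptanoyl phosphatidylcholine, added as a 6 mmol/L solution, and enzyme was FLAG-tagged full-length human PLD2 from Expi293F, added as a 6 nmol/L solution. Buffer was 50 mM HEPES pH 7.5 with 5% final DMSO.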
Sequence of full-length human PLD2 (O14939 whole entry): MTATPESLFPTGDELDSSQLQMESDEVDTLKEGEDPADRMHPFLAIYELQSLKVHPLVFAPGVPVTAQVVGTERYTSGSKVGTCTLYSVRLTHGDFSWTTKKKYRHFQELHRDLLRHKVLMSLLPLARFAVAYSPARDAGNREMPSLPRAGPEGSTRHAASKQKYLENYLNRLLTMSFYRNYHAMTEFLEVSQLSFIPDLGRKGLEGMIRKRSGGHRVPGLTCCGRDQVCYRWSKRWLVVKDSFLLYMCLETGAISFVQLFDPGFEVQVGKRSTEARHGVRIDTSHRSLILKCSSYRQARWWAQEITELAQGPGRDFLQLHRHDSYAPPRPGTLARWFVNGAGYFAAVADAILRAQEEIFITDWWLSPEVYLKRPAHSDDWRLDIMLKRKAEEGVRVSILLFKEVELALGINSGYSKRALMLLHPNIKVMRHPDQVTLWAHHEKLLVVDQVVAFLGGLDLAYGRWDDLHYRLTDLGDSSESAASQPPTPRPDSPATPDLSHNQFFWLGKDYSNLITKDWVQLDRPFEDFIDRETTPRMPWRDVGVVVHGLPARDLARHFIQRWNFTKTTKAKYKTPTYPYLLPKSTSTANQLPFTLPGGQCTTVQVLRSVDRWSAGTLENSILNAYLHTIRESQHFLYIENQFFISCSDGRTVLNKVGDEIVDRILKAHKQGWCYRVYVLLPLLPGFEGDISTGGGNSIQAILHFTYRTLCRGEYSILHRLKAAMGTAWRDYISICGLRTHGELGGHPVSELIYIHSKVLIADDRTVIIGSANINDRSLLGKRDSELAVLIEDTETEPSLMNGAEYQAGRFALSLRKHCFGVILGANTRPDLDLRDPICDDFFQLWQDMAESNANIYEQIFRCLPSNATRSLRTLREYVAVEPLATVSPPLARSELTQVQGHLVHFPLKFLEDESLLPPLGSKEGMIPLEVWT

Sequence of full-length human PLD1 (Q13393 other isoform, or with tags, fused parts or gaps): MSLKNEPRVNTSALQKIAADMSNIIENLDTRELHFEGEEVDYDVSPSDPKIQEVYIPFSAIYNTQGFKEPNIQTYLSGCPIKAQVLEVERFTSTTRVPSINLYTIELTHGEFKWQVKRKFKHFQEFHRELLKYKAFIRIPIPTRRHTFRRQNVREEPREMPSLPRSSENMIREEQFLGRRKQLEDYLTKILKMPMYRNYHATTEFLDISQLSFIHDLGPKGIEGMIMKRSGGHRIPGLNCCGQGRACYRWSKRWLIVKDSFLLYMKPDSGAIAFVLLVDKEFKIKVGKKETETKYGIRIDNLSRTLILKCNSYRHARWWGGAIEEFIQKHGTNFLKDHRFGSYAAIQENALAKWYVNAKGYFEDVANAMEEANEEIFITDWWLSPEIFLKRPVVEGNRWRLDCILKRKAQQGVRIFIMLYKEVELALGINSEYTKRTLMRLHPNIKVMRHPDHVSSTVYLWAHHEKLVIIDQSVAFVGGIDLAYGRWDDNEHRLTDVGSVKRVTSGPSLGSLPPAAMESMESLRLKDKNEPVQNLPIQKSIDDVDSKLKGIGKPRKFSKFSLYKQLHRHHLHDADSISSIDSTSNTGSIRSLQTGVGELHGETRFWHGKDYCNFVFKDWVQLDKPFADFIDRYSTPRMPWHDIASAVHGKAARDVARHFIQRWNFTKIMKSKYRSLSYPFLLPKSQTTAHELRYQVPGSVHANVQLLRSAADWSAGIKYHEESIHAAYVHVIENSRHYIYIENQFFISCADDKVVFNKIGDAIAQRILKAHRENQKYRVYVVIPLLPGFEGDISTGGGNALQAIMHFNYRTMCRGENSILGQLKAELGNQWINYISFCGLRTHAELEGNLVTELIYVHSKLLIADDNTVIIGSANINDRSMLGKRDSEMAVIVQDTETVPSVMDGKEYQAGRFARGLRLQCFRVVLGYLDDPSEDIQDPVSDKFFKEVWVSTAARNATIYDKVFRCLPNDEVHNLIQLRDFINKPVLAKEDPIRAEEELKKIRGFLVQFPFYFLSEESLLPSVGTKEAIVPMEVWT

In the case of `CNC(=O)C(=O)N[C@@H](C)C[C@H]1CC[C@]2(CC1)OC(=O)NN=C2c1cnc(N2CCCC2)cc1C` [Example 165], the 50% inhibitory concentration (IC50) in test [1] is 19 nM; in test [2], below 10 nM.

As to `CNC(=O)C(=O)N[C@@H](C)C[C@H]1CC[C@]2(CC1)OC(=O)NN=C2c1cnc(N2CCCCC2)cc1C` [Example 166], the IC50 in test [1] is 19 nM; in test [2] it was below 10 nM.

For the compound `CNC(=O)C(=O)N[C@@H](C)C[C@H]1CC[C@]2(CC1)OC(=O)NN=C2c1ccc(C(C)=O)cc1C` [Example 167], the figures for the IC50 in test [1] and in test [2] were 20 nM and below 10 nM, respectively.

On to `CNC(=O)C(=O)N[C@@H](C)CN1CCC2(CC1)OC(=O)NN=C2c1ccc(C#N)cc1Cl` [Example 168], for which the figures for the IC50 in test [1] and in test [2] were 56 nM and 35 nM, respectively.

Regarding `Cc1cc(C(=O)N[C@@H](C)CN2CCC3(CC2)OC(=O)NN=C3c2ccc(C#N)cc2Cl)[nH]n1` [Example 169], the half-maximal inhibitory concentration (IC50) is 34 nM in test [1] and 20 nM in test [2].

In the case of `CNC(=O)C(=O)N[C@@H](C)C[C@H]1CC[C@]2(CC1)OC(=O)NN=C2c1cnc(OCC(F)(F)F)cc1C` [Example 170], the results for the IC50 in test [1] and in test [2] were 19 nM and below 10 nM, respectively.

Turning to `CNC(=O)C(=O)N[C@@H](C)C[C@H]1CC[C@]2(CC1)OC(=O)NN=C2c1cnc(C2CC2)cc1C` [Example 171], the IC50 in test [1] is 13 nM; in test [2] it was below 10 nM.

As for `CNC(=O)C(=O)N[C@@H](C)C[C@H]1CC[C@]2(CC1)OC(=O)NN=C2c1cnc(I)cc1C` [Example 172], the results for the IC50 in test [1] and in test [2] were 23 nM and 12 nM, respectively.

Consider `CNC(=O)C(=O)N[C@@H](C)C[C@H]1CC[C@]2(CC1)OC(=O)NN=C2c1cnc(C)cc1C` [Example 173], for which the IC50 came to 29 nM in test [1] and 10 nM in test [2].

As for `CNC(=O)C(=O)N[C@@H](C)C[C@H]1CC[C@]2(CC1)OC(=O)NN=C2c1cnc(C(F)(F)F)cc1C` [Example 174], the IC50 amounted to 42 nM in test [1] and 17 nM in test [2].

For `CNC(=O)C(=O)N[C@@H](C)C[C@H]1CC[C@]2(CC1)OC(=O)NN=C2c1ccc(C#N)cc1Cl` [Example 175], the IC50 was 21 nM in test [1] and 15 nM in test [2].

Consider `Cc1cc(C(=O)N[C@@H](C)C[C@H]2CC[C@]3(CC2)OC(=O)NN=C3c2ccc(C#N)cc2Cl)[nH]n1` [Example 176], for which the IC50 in test [1] and in test [2] was 29 nM each time.

Regarding `C[C@@H](C[C@H]1CC[C@]2(CC1)OC(=O)NN=C2c1ccc(F)cc1I)NC(=O)C(=O)NC1CC1` [Example 177], the values for the 50% inhibitory concentration (IC50) in test [1] and in test [2] were 10 nM and below 10 nM, respectively.

With `CNC(=O)C(=O)N[C@@H](C)C[C@H]1CC[C@]2(CC1)OC(=O)NN=C2c1ccc(C(C)(C)O)cc1C` [Example 178], the IC50 was 14 nM in test [1] and 17 nM in test [2].

Regarding `CNC(=O)C(=O)N[C@@H](C)CN1CCC2(CC1)OC(=O)NN=C2c1ccc(F)cc1Br` [Example 179, (S)—N^1-(1-(5-(2-bromo-4-fluorophenyl)-2-oxo-1-oxa-3,4,9-triazaspiro[5.5]undec-4-en-9-yl)propan-2-yl)-N^2-methyloxamide], the IC50 in test [1] was 25 nM; in test [2], below 10 nM.

For `C[C@@H](CN1CCC2(CC1)OC(=O)NN=C2c1ccc(F)cc1Br)NC(=O)C(=O)NC1CC1` [Example 180], the values for the IC50 in test [1] and in test [2] were 28 nM and 12 nM, respectively.

Turning to `CNC(=O)C(=O)N[C@@H](C)C[C@H]1CC[C@]2(CC1)OC(=O)NN=C2c1ccc(C(F)(F)F)cc1C` [Example 181], the IC50 is 13 nM in test [1] and below 10 nM in test [2].

For the compound `CNC(=O)C(=O)N[C@@H](C)C[C@H]1CC[C@]2(CC1)OC(=O)NN=C2c1cnc(N2CC(C)C2)cc1C` [Example 182], the IC50 in test [1] was 19 nM; in test [2], below 10 nM.

On to `CNC(=O)N[C@@H](C)C[C@H]1CC[C@]2(CC1)OC(=O)NN=C2c1ccc(F)cc1I` [Example 183], for which the results for the half-inhibitory concentration (IC50) in test [1] and in test [2] were 42 nM and 107 nM, respectively.

Consider `CNC(=O)C(=O)N[C@@H](C)C[C@H]1CC[C@]2(CC1)OC(=O)NN=C2c1cc(OC(F)F)ccc1Br` [Example 184], for which the IC50 in test [1] and in test [2] was below 10 nM each time.

Turning to `CNC(=O)C(=O)N[C@@H](C)C[C@H]1CC[C@]2(CC1)OC(=O)NN=C2c1cnc(C(C)(C)O)cc1C` [Example 185], the concentration for half-maximal inhibition (IC50) in test [1] was determined as 68 nM; in test [2], 64 nM.

In the case of `CNC(=O)C(=O)N[C@@H](C)C[C@H]1CC[C@]2(CC1)OC(=O)NN=C2c1cnc(C(=O)O)cc1C` [Example 186], the inhibition at 10 µM in test [1] (10 μM compound, read-out: PLD1 inhibition rate at 10 μM) came out at 33%; in test [1] (read-out: inhibition rate of PLD1 at 10 μM compound), 33%; in test [2] (10 μM compound, read-out: PLD2 inhibition rate at 10 μM), 18%; in test [2] (read-out: inhibition rate of PLD2 at 10 μM compound), 18%.

On to `CNC(=O)C(=O)N[C@@H](C)C[C@H]1CC[C@]2(CC1)OC(=O)NN=C2c1cnc(C(N)=O)cc1C` [Example 187], for which the IC50 in test [1] was found to be 222 nM; in test [2], 455 nM.

Regarding `CNC(=O)C(=O)N[C@@H](C)C[C@H]1CC[C@]2(CC1)OC(=O)NN=C2c1cnc(C#N)cc1C` [Example 188], the IC50 in test [1] stood at 44 nM; in test [2], 33 nM.

Take `C[C@@H](CN1CCC2(CC1)OC(=O)NN=C2c1ccc(F)cc1Br)NC(=O)NC1CC1` [Example 189]: the concentration for half-maximal inhibition (IC50) worked out at 130 nM in test [1] and 140 nM in test [2].

As for `C[C@@H](CN1CCC2(CC1)OC(=O)N(C(=O)NC1CC1)N=C2c1ccc(F)cc1Br)NC(=O)NC1CC1` [Example 190], the values for the half-inhibitory concentration (IC50) in test [1] and in test [2] were 642 nM and 776 nM, respectively.

For `CNC(=O)C(=O)N[C@@H](C)C[C@H]1CC[C@]2(CC1)OC(=O)NN=C2c1cnc(N2CC3(COC3)C2)cc1C` [Example 191], the IC50 in test [1] was 38 nM; in test [2], below 10 nM.

Take `CNC(=O)C(=O)N[C@@H](C)C[C@H]1CC[C@]2(CC1)OC(=O)NN=C2c1cnc(N2CC(C(F)(F)F)C2)cc1C` [Example 192]: the figures for the half-maximal inhibitory concentration (IC50) in test [1] and in test [2] were 21 nM and below 10 nM, respectively.

On to `CNC(=O)C(=O)N[C@@H](C)C[C@H]1CC[C@]2(CC1)OC(=O)NN=C2c1cnc(C(C)=O)cc1C` [Example 193], for which the figures for the IC50 in test [1] and in test [2] were 55 nM and 46 nM, respectively.

Take `CNC(=O)C(=O)N[C@@H](C)C[C@H]1CC[C@]2(CC1)OC(=O)NN=C2c1cc(OC(F)F)ccc1C` [Example 194]: the IC50 in test [1] and in test [2] was below 10 nM in each case.

As to `C[C@@H](C[C@H]1CC[C@]2(CC1)OC(=O)NN=C2c1ccc(OC(F)(F)F)cc1Br)NC(=O)NC1CC1` [Example 195], the IC50 is 39 nM in test [1] and 67 nM in test [2].

With `CNC(=O)C(=O)N[C@@H](C)CN1C[C@H]2CC[C@@H](C1)[C@@]21OC(=O)NN=C1c1ccc(F)cc1Cl` [Example 196], the figures for the IC50 in test [1] and in test [2] were 27 nM and below 10 nM, respectively.

In the case of `Cc1cc(C(=O)N[C@@H](C)CN2C[C@H]3CC[C@@H](C2)[C@@]32OC(=O)NN=C2c2ccc(F)cc2Cl)[nH]n1` [Example 197], the figures for the IC50 in test [1] and in test [2] were 26 nM and below 10 nM, respectively.

With `CNC(=O)C(=O)N[C@@H](C)C[C@H]1CC[C@]2(CC1)OC(=O)NN=C2c1cc(C#N)ccc1Br` [Example 198, N^1—((S)-1-(cis-5-(2-bromo-5-cyanophenyl)-2-oxo-1-oxa-3,4-diazaspiro[5.5]undec-4-en-9-yl)propan-2-yl)-N^2-methyloxamide], the IC50 is 11 nM in test [1] and below 10 nM in test [2].

For the compound `Cc1cc(C(=O)N[C@@H](C)C[C@H]2CC[C@]3(CC2)OC(=O)NN=C3c2ccc(C#N)cc2Br)[nH]n1` [Example 199], the IC50 in test [1] is 10 nM; in test [2], below 10 nM.

For `Cc1cc(N2CCOCC2)ccc1C1=NNC(=O)O[C@]12CC[C@@H](C[C@H](C)NC(=O)N1CCOCC1)CC2` [Example 200], the IC50 in test [1] worked out at 103 nM; in test [2], 82 nM.

Take `Cc1cc(C(=O)N[C@@H](C)C[C@H]2CC[C@]3(CC2)OC(=O)NN=C3c2ccc(C(=O)O)cc2C)[nH]n1` [Example 201]: the IC50 in test [1] turned out to be 328 nM; in test [2], 371 nM.

For the compound `C[C@@H](CN1CCC2(CC1)OC(=O)NN=C2c1ccc(F)cc1Br)NC(=O)C(=O)NC12CC(C1)C2` [Example 202], the results for the IC50 in test [1] and in test [2] were 832 nM and 1250 nM, respectively.

For `C[C@@H](C[C@H]1CC[C@]2(CC1)OC(=O)NN=C2c1ccc(F)cc1Br)NC(=O)C(=O)NC1CC1` [Example 203], the IC50 in test [1] is 12 nM; in test [2], below 10 nM.

Consider `Cc1cc(C(=O)N[C@@H](C)C[C@H]2CC[C@]3(CC2)OC(=O)NN=C3c2ccc(C(=O)NC3CC3)cc2C)[nH]n1` [Example 204], for which the IC50 in test [1] turned out to be 123 nM; in test [2] it was 146 nM.

With `CNC(=O)C(=O)N[C@@H](C)C[C@H]1CC[C@]2(CC1)OC(=O)NN=C2c1ccc(C#N)c(C)c1` [Example 205], the 50% inhibitory concentration (IC50) turned out to be 35 nM in test [1] and 102 nM in test [2].

With `CNC(=O)C(=O)N[C@@H](C)CN1CCC2(CC1)OC(=O)NN=C2c1ccc(C#N)cc1Br` [Example 206], the IC50 came to 36 nM in test [1] and 13 nM in test [2].

`Cc1cc(C(=O)N[C@@H](C)CN2CCC3(CC2)OC(=O)NN=C3c2ccc(C#N)cc2Br)[nH]n1` [Example 207]: the IC50 in test [1] was 25 nM; in test [2] it was below 10 nM.

Consider `CONC(=O)N[C@@H](C)C[C@H]1CC[C@]2(CC1)OC(=O)NN=C2c1ccc(F)cc1I` [Example 208], for which the IC50 came out at 45 nM in test [1] and 224 nM in test [2].

As a reminder, the IC50 is the midpoint of a concentration-inhibition curve. As usually defined, the inhibition is the share of the control response that was lost under treatment.
